Results published in patent publication US20090253633A1, “Novel Combinations of DNAK Inhibitors With Known Antibacterial Agents” (priority 2005, published 2009).
Bridges are numbered along the chain shown (N, C = ends). Roman numbers before positions name the chains, in order. [ ]: non-standard residue; d: D form. NMeR = CN[C@@H](CCCNC(=N)N)C(=O)O; Api = NC1(C(=O)O)CCNCC1; Dab = NCC[C@H](N)C(=O)O

Tested on: E. coli isolate CHP-04-002EC
Assay: MIC against the E. coli test isolate
Format: cell-based
Conditions: stated as 1×MIC
Experimental: Growth inhibition assays were performed using the Gram negative E. coli isolate CHP-04-002EC obtained from Laboratory Specialists, Inc. (Westlake, Ohio). […] Untreated bacterial culture served as growth control. At 4, 8, 12 and 24 hrs post-application, the cultures were serially diluted, plated and allowed to grow overnight. Colony forming units (CFU) were determined by counting the number of newly grown colonies and multiplying by the dilution factor.

I: H-[Api]DKGSYLPRPTPPRPIYN[NMeR]N[Dab]-NH2 / II: H-[Api]DKGSYLPRPTPPRPIYN[NMeR]N (amide I:21-II:C) [CHP-105]
MIC: 64 µg/mL
